Where a SMILES comes first, the peptide text is derived from it.
Tests used:
Caki-1 = format: cell-based, human; details: Caki-1; for Anti-cancer activity (% relative to wild-type peptide) / Decrease in cell survival rate (% relative to wild-type peptide): wild-type peptide = 100%
U937 = test: cells; format: cell-based, human; details: for Anti-cancer activity (% relative to wild-type peptide) / Decrease in cell survival rate (% relative to wild-type peptide) / killing effect compared with the wild-type peptide: U937; for Anti-cancer activity (% relative to wild-type peptide) / Decrease in cell survival rate (% relative to wild-type peptide): wild-type peptide = 100%
Protocol: A total of 3×10^3 cells per well were inoculated onto a 96 well plate, and incubated in a medium containing 10% FBS with 100 μl of a peptide diluted stepwise at 37° C. for 48 to 72 hours. The survival rate of the cells was measured by using WST-8 solution (Cell Count Reagent SF; Nacalai Tesque, Inc.).

cancer cells = test: Cell viability assay, summary statements on cancer cells; format: cell-based; details: single mutation in TPR or Antp region of Antp-TPR

SMILES	Anti-cancer activity (% relative to wild-type peptide) (Caki-1) [%]	Decrease in cell survival rate (% relative to wild-type peptide) (Caki-1) [%]	Cell Survival Rate (%) (U937)	Anti-cancer activity (% relative to wild-type peptide) (U937) [%]	Decrease in cell survival rate (% relative to wild-type peptide) (U937) [%]	effect compared with the wild-type protein (summary of mutations) (cancer cells)	killing effect compared with the wild-type peptide (Caki-1)	killing effect compared with the wild-type peptide (U937)
CC[C@H](C)[C@H](NC(=O)[C@H](CCCNC(=N)N)NC(=O)[C@H](C)NC(=O)[C@H](Cc1ccc(O)cc1)NC(=O)[C@H](C)NC(=O)[C@H](C)NC(=O)[C@H](CCCCN)NC(=O)[C@H](CCCCN)NC(=O)[C@H](Cc1c[nH]c2ccccc12)NC(=O)[C@H](CCCCN)NC(=O)[C@H](CCSC)NC(=O)[C@H](CCCNC(=N)N)NC(=O)[C@H](CCCNC(=N)N)NC(=O)[C@H](CC(N)=O)NC(=O)[C@H](CCC(N)=O)NC(=O)[C@H](Cc1ccccc1)NC(=O)[C@H](Cc1c[nH]c2ccccc12)NC(=O)[C@@H](NC(=O)[C@H](CCCCN)NC(=O)[C@@H](NC(=O)[C@H](CCC(N)=O)NC(=O)[C@@H](N)CCCNC(=N)N)[C@@H](C)CC)[C@@H](C)CC)C(=O)NCC(=O)N[C@@H](CC(N)=O)C(=O)N[C@@H](CO)C(=O)N[C@@H](Cc1ccc(O)cc1)C(=O)N[C@@H](Cc1ccccc1)C(=O)N[C@@H](CCCCN)C(=O)O [Antp-K1A] (H-RQIKIWFQNRRMKWKKAAYARIGNSYFK-OH; N-terminus and C-terminus assumed)	20.29	13.04	93.55	8.41	24.84	effective but with a lower effect than the wild-type protein		
CC[C@H](C)[C@H](NC(=O)[C@H](CCCNC(=N)N)NC(=O)CNC(=O)[C@H](Cc1ccc(O)cc1)NC(=O)[C@H](C)NC(=O)[C@H](CCCCN)NC(=O)[C@H](CCCCN)NC(=O)[C@H](CCCCN)NC(=O)[C@H](Cc1c[nH]c2ccccc12)NC(=O)[C@H](CCCCN)NC(=O)[C@H](CCSC)NC(=O)[C@H](CCCNC(=N)N)NC(=O)[C@H](CCCNC(=N)N)NC(=O)[C@H](CC(N)=O)NC(=O)[C@H](CCC(N)=O)NC(=O)[C@H](Cc1ccccc1)NC(=O)[C@H](Cc1c[nH]c2ccccc12)NC(=O)[C@@H](NC(=O)[C@H](CCCCN)NC(=O)[C@@H](NC(=O)[C@H](CCC(N)=O)NC(=O)[C@@H](N)CCCNC(=N)N)[C@@H](C)CC)[C@@H](C)CC)C(=O)NCC(=O)N[C@@H](CC(N)=O)C(=O)N[C@@H](CO)C(=O)N[C@@H](Cc1ccc(O)cc1)C(=O)N[C@@H](Cc1ccccc1)C(=O)N[C@@H](CCCCN)C(=O)O [Antp-A4G] (H-RQIKIWFQNRRMKWKKKAYGRIGNSYFK-OH; N-terminus and C-terminus assumed)	108.40	333.52	11.42	115.40	203.46	effect higher than the wild-type protein	stronger than that of the wild-type peptide	
CC[C@H](C)[C@H](NC(=O)[C@H](CCCNC(=N)N)NC(=O)[C@H](C)NC(=O)[C@H](Cc1ccc(O)cc1)NC(=O)CNC(=O)[C@H](CCCCN)NC(=O)[C@H](CCCCN)NC(=O)[C@H](CCCCN)NC(=O)[C@H](Cc1c[nH]c2ccccc12)NC(=O)[C@H](CCCCN)NC(=O)[C@H](CCSC)NC(=O)[C@H](CCCNC(=N)N)NC(=O)[C@H](CCCNC(=N)N)NC(=O)[C@H](CC(N)=O)NC(=O)[C@H](CCC(N)=O)NC(=O)[C@H](Cc1ccccc1)NC(=O)[C@H](Cc1c[nH]c2ccccc12)NC(=O)[C@@H](NC(=O)[C@H](CCCCN)NC(=O)[C@@H](NC(=O)[C@H](CCC(N)=O)NC(=O)[C@@H](N)CCCNC(=N)N)[C@@H](C)CC)[C@@H](C)CC)C(=O)NCC(=O)N[C@@H](CC(N)=O)C(=O)N[C@@H](CO)C(=O)N[C@@H](Cc1ccc(O)cc1)C(=O)N[C@@H](Cc1ccccc1)C(=O)N[C@@H](CCCCN)C(=O)O [Antp-A2G] (H-RQIKIWFQNRRMKWKKKGYARIGNSYFK-OH; N-terminus and C-terminus assumed)	100.70	105.96	13.90	112.17	167.23	effect higher than the wild-type protein		increase in effect
CC[C@H](C)[C@H](NC(=O)[C@H](CCCNC(=N)N)NC(=O)[C@H](C)NC(=O)[C@H](Cc1ccc(O)cc1)NC(=O)[C@H](C)NC(=O)[C@H](CCCCN)NC(=O)[C@H](CCCCN)NC(=O)[C@H](CCCCN)NC(=O)[C@H](Cc1c[nH]c2ccccc12)NC(=O)[C@H](CCCCN)NC(=O)[C@H](CCSC)NC(=O)[C@H](CCCNC(=N)N)NC(=O)[C@H](CCCNC(=N)N)NC(=O)[C@H](CC(N)=O)NC(=O)[C@H](CCC(N)=O)NC(=O)[C@H](Cc1ccccc1)NC(=O)[C@H](Cc1c[nH]c2ccccc12)NC(=O)[C@@H](NC(=O)[C@H](CCCCN)NC(=O)[C@@H](NC(=O)[C@H](CCC(N)=O)NC(=O)[C@@H](N)CCCNC(=N)N)[C@@H](C)CC)[C@@H](C)CC)C(=O)NCC(=O)N[C@@H](CC(N)=O)C(=O)N[C@@H](Cc1ccc(O)cc1)C(=O)N[C@@H](Cc1ccc(O)cc1)C(=O)N[C@@H](Cc1ccccc1)C(=O)N[C@@H](CCCCN)C(=O)O [Antp-S9Y] (H-RQIKIWFQNRRMKWKKKAYARIGNYYFK-OH; N-terminus and C-terminus assumed)	106.80	232.05	12.73	113.69	182.60	effect higher than the wild-type protein	stronger than that of the wild-type peptide	increase in effect
CC[C@H](C)[C@H](NC(=O)[C@H](CCCNC(=N)N)NC(=O)[C@H](C)NC(=O)[C@H](CC(C)C)NC(=O)[C@H](C)NC(=O)[C@H](CCCCN)NC(=O)[C@H](CCCCN)NC(=O)[C@H](CCCCN)NC(=O)[C@H](Cc1c[nH]c2ccccc12)NC(=O)[C@H](CCCCN)NC(=O)[C@H](CCSC)NC(=O)[C@H](CCCNC(=N)N)NC(=O)[C@H](CCCNC(=N)N)NC(=O)[C@H](CC(N)=O)NC(=O)[C@H](CCC(N)=O)NC(=O)[C@H](Cc1ccccc1)NC(=O)[C@H](Cc1c[nH]c2ccccc12)NC(=O)[C@@H](NC(=O)[C@H](CCCCN)NC(=O)[C@@H](NC(=O)[C@H](CCC(N)=O)NC(=O)[C@@H](N)CCCNC(=N)N)[C@@H](C)CC)[C@@H](C)CC)C(=O)NCC(=O)N[C@@H](CC(N)=O)C(=O)N[C@@H](CO)C(=O)N[C@@H](Cc1ccc(O)cc1)C(=O)N[C@@H](Cc1ccccc1)C(=O)N[C@@H](CCCCN)C(=O)O [Antp-Y3L] (H-RQIKIWFQNRRMKWKKKALARIGNSYFK-OH; N-terminus and C-terminus assumed)	52.87	20.23	60.94	50.89	38.14	effective but with a lower effect than the wild-type protein		
CC[C@H](C)[C@H](NC(=O)[C@H](CCCCN)NC(=O)[C@H](C)NC(=O)[C@H](Cc1ccc(O)cc1)NC(=O)[C@H](C)NC(=O)[C@H](CCCCN)NC(=O)[C@H](CCCCN)NC(=O)[C@H](CCCCN)NC(=O)[C@H](Cc1c[nH]c2ccccc12)NC(=O)[C@H](CCCCN)NC(=O)[C@H](CCSC)NC(=O)[C@H](CCCNC(=N)N)NC(=O)[C@H](CCCNC(=N)N)NC(=O)[C@H](CC(N)=O)NC(=O)[C@H](CCC(N)=O)NC(=O)[C@H](Cc1ccccc1)NC(=O)[C@H](Cc1c[nH]c2ccccc12)NC(=O)[C@@H](NC(=O)[C@H](CCCCN)NC(=O)[C@@H](NC(=O)[C@H](CCC(N)=O)NC(=O)[C@@H](N)CCCNC(=N)N)[C@@H](C)CC)[C@@H](C)CC)C(=O)NCC(=O)N[C@@H](CC(N)=O)C(=O)N[C@@H](CO)C(=O)N[C@@H](Cc1ccc(O)cc1)C(=O)N[C@@H](Cc1ccccc1)C(=O)N[C@@H](CCCCN)C(=O)O [Antp-R5K] (H-RQIKIWFQNRRMKWKKKAYAKIGNSYFK-OH; N-terminus and C-terminus assumed)	6.58	11.34	92.57	9.68	25.10	effective but with a lower effect than the wild-type protein		

Source: patent publication US8546320B2, “Hsp9O-targeted anti-cancer chimeric peptide” (Kyoto University, priority 2008, dated 2013)
